Data taken from US5552552A, “Crystalline salts of optically active aminocoumaran derivatives, their production and use” (Takeda Chemical Industries, Ltd., priority 1992, dated 1996).
Structures can show the parent of a compound that is named as a salt.

Experiments:
[1] = in words; free form (racemate), as described in EP-A-0483772; cited from earlier work
[2] = Stability / hygroscopicity (no method); type: physicochemical; details: in words; derivative (B), racemate; no data
[3] = system: behavioral change induced by spinal intrathecal injection of FeCl2 (ferrous chloride); assay: Change of behavior induced by spinal intrathecal injection of FeCl2 in mice; type: in vivo, male Slc:ICR mice (printed "SIc: IcR mice"); details: 25 mg/kg oral; for Mean Score, 25 mg/kg Administered: behavior observed 15 min to 1 h after intrathecal 50 mM FeCl2, 5 μl/mouse, 10 mice per group, score 0 (normal) to 5 (death); for Percent Suppression (%): calculated from the mean behavioral scores, FeCl2 intrathecal, mice
Description: Effect on drugs on the change of behavior induced by spinal in intrathecal injection of FeCl2 in mice.
Male SIc: IcR mice (5 weeks) (10 mice per group) were used. […] The following criteria were used to score behavioral changes.
1: Frequent bites to lower limbs and lower abdomen.
2: One of the following three responses is seen: a) Violent bites to lower half of body, with occasionally rolling b) Hypersensitive aggressive behavior in response to external stimulation […]
4: Tonic convulsion, or unilateral or bilateral limb paralysis […]
Percent inhibitions were calculated from the scores obtained as above (percent inhibition=[(5-score)/5]×100). The subject compound salt was orally administered during the 30-minute period following administration of ferrous chloride.

In the case of `Cc1c(C)c2c(c(C)c1N)CC(C)(CN1CCC(c3ccccc3)CC1)O2` (racemic) [Derivative (B), 5-amino-2,4,6,7-tetramethyl-2-(4-phenylpiperidinomethyl)-2,3-dihydrobenzo[b]furan], the “water solubility of the free form” value [1] is listed as “sparingly water-soluble” and the hygroscopicity and stability [2] is listed as “hygroscopic and hence unstable”.

For `Cc1c(C)c2c(c(C)c1N)C[C@@](C)(CN1CCC(c3ccccc3)CC1)O2` [Example 3, (S)--(+)-5-amino-2,4,6,7-tetramethyl-2-(4-phenylpiperidinomethyl)-2,3-dihydrobenzo [b]furan dihydrochloride], the “Mean Score, 25 mg/kg Administered” value [3] was 0.2 and the “Percent Suppression (%)” value [3] was 96%.

For `Cc1c(C)c2c(c(C)c1N)C[C@](C)(CN1CCC(c3ccccc3)CC1)O2` [Example 4, (R)--(-)-5-amino-2,4,6,7-tetramethyl-2-(4-phenylpiperidinomethyl)-2,3-dihydrobenzo [b]furan dihydrochloride], the “Mean Score, 25 mg/kg Administered” value [3] was 1.3 and the “Percent Suppression (%)” value [3] was 72.3%.
